Data set [1] has as its system Plasma. As to the kind of experiment: Anticoagulant potency in human plasma assessed as concentration for doubling of prothrombin time. The format is functional.
The next data set deals with Prothrombin (Homo sapiens, UniProt P00734). As to the kind of experiment: Inhibition of human F2a. The following applies: read-out: Ki app.
The nature of data set [2]: Clearance in Beagle dog at 1 mg/kg, iv. The format is ADME, organism-based, Canis lupus familiaris. On the set-up: dose 1 mg/kg, route intravenous. Conditions: in vivo.
Data set [3] is described as follows: Volume of distribution at steady state in Beagle dog at 1 mg/kg, iv. The format is ADME, organism-based, Canis lupus familiaris. Set-up: dose 1 mg/kg, route intravenous. Conditions: in vivo, read-out: Vss.
Data set [4] is described as follows: Half life in Beagle dog at 1 mg/kg, iv. The format is ADME, organism-based, Canis lupus familiaris. On the set-up: dose 1 mg/kg, route intravenous. Conditions: in vivo.
Data set [5] in a line: Cmax in Beagle dog at 10 mg/kg, po. The following applies: in vivo. Set-up: dose 10 mg/kg, route oral. The format is ADME, organism-based, Canis lupus familiaris.
The nature of data set [6]: Bioavailability in Beagle dog at 10 mg/kg, po normalized to 1 mg/kg, iv. The format is ADME, organism-based, Canis lupus familiaris. The following applies: in vivo.
The subject of data set [7] is Plasma. Briefly: Anticoagulant potency in dog plasma assessed as concentration for doubling of prothrombin time. It is filed as functional, Canis lupus familiaris.
Data set [8] has as its system Plasma. Briefly: Anticoagulant potency in rat plasma assessed as concentration for doubling of prothrombin time. It is filed as functional.
Data set [9] is described as follows: Inhibition of dog F10a. On the set-up: species or system Canis lupus familiaris.
Data set [10] deals with Coagulation factor X (Rattus norvegicus, UniProt Q63207). As to the kind of experiment: Inhibition of rat F10a.
Coagulation factor X (Rattus norvegicus, UniProt Q63207), sequence (Q63207 41-180 limits assumed): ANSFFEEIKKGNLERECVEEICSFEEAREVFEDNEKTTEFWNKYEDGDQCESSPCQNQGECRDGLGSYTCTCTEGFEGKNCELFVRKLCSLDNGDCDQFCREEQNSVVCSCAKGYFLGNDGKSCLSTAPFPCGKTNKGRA
Coagulation factor X (Rattus norvegicus, UniProt Q63207), sequence (Q63207 232-482 limits assumed): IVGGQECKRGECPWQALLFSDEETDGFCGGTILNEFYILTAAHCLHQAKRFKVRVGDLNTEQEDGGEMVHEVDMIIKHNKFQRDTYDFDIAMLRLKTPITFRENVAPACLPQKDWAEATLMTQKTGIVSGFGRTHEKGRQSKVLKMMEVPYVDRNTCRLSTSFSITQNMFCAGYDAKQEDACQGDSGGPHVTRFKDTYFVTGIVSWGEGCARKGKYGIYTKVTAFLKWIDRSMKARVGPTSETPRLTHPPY
In another data set the target is Trypsin (Homo sapiens, UniProt P07477+P07478+P35030). As to the kind of experiment: Inhibition of human trypsin. The format is protein assay.
Data set [11] has as its target Tissue-type plasminogen activator (Homo sapiens, UniProt P00750). Briefly: Inhibition of human tPA.
The target of another data set is Plasma kallikrein (Homo sapiens, UniProt P03952). Briefly: Inhibition of human kallikrein.
Plasma kallikrein, sequence (P03952 20-390 limits assumed): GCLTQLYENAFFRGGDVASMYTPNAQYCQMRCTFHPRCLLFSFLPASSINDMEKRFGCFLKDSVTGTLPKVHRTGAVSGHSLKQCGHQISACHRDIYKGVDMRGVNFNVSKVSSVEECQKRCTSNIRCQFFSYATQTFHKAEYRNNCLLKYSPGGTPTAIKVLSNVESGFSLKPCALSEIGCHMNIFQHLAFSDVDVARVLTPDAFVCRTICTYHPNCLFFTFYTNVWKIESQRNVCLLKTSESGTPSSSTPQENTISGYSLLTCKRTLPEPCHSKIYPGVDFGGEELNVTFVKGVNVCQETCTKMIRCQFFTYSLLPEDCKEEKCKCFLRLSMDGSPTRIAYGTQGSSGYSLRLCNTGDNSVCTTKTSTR
Plasma kallikrein, sequence (P03952 391-638 limits assumed): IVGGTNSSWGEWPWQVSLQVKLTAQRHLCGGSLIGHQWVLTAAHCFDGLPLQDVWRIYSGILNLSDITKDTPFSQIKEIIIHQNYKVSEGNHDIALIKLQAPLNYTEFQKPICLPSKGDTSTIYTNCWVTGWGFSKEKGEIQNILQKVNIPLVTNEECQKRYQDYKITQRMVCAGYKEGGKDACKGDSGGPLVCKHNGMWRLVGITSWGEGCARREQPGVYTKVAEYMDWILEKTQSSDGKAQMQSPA
Another data set concerns the target Coagulation factor XI (Homo sapiens, UniProt P03951). As to the kind of experiment: Inhibition of human F11a.
The target in data set [12] is Urokinase-type plasminogen activator (Homo sapiens, UniProt P00749). Briefly: Inhibition of human urokinase.
Another data set addresses Plasminogen (Homo sapiens, UniProt P00747). Briefly: Inhibition of human plasmin.
A short description of data set [13]: Inhibition of human chymotrypsin.
The target in the next data set is T1, Cathepsin G (Homo sapiens, UniProt P08311).
T1 sequence (P08311 whole entry): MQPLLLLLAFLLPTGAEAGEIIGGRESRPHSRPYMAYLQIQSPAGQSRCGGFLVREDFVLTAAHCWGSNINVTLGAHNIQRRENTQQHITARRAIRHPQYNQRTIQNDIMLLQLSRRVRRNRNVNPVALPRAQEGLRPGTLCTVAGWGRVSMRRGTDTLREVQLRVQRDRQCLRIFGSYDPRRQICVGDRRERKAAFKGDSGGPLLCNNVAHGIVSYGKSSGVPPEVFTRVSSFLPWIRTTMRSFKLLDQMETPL
As to the kind of experiment: Inhibition of human cathepsin G.

Another data set has as its target T2, Neutrophil elastase (Homo sapiens, UniProt P08246).
T2 sequence (P08246 whole entry): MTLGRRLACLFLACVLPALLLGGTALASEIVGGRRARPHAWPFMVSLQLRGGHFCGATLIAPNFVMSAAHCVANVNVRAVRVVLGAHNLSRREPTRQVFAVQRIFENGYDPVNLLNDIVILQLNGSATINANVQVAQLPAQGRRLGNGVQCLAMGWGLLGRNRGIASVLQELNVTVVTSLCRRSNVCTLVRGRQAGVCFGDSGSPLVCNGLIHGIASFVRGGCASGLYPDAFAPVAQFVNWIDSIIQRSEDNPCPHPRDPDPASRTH
As to the kind of experiment: Inhibition of human neutrophil elastase.

In another data set the test system is Rattus norvegicus. As to the kind of experiment: Inhibition of thrombosis in iv dosed Wistar rat vena cava stasis model. It is filed as functional, organism-based.
Data set [14] in a line: Distribution coefficient, log D at pH 7.4. The format is physicochemical. The following applies: octanol/water.
For data set [15], the target named is Coagulation factor X (Homo sapiens, UniProt P00742). As to the kind of experiment: Inhibition of human F10a. Conditions: read-out: Ki app.
Coagulation factor X (Homo sapiens, UniProt P00742), sequence (P00742 41-179 limits assumed): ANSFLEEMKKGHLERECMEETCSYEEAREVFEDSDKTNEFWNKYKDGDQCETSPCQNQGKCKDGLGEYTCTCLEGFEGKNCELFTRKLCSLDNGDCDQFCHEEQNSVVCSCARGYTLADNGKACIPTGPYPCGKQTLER
Coagulation factor X (Homo sapiens, UniProt P00742), sequence (P00742 235-488 limits assumed): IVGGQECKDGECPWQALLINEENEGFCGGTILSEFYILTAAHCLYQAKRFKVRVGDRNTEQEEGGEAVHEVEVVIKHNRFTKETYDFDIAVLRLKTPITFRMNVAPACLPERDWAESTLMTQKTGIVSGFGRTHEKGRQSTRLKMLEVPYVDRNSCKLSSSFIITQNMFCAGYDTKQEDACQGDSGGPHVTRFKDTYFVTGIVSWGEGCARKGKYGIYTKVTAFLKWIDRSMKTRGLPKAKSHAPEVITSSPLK
Data set [16] concerns Canis familiaris. Briefly: Ex vivo anticoagulant potency in dog assessed as prolongation of prothrombin time at 10 mg/kg, po after 1 hr. It is filed as functional, Canis lupus familiaris.
The test system of data set [17] is Canis familiaris. As to the kind of experiment: Ex vivo anticoagulant potency in dog assessed as prolongation of prothrombin time at 10 mg/kg, po after 2 hrs. It is filed as functional, Canis lupus familiaris.
Data set [18] has as its system Canis familiaris. As to the kind of experiment: Ex vivo anticoagulant potency in dog assessed as prolongation of prothrombin time at 10 mg/kg, po after 6 hrs. The format is functional, Canis lupus familiaris.

Coagulation factor XI, sequence (P03951 19-387 limits assumed): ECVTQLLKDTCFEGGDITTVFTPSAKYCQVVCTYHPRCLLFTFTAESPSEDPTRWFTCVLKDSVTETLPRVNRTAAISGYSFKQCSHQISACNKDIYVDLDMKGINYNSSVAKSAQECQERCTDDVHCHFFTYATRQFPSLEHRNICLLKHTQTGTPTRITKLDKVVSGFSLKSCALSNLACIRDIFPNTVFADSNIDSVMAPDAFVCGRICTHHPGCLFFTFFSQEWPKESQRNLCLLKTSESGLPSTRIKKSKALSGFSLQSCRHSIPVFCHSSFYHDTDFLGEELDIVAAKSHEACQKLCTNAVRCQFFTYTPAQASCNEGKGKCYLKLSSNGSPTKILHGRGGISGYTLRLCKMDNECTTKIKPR
Coagulation factor XI, sequence (P03951 388-625 limits assumed): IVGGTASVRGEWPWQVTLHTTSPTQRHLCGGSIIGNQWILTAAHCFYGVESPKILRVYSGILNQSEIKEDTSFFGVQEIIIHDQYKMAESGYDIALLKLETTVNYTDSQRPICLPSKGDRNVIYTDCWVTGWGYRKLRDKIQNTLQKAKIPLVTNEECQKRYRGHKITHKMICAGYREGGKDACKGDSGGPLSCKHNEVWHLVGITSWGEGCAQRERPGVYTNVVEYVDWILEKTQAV
Tissue-type plasminogen activator, sequence (P00750 whole entry): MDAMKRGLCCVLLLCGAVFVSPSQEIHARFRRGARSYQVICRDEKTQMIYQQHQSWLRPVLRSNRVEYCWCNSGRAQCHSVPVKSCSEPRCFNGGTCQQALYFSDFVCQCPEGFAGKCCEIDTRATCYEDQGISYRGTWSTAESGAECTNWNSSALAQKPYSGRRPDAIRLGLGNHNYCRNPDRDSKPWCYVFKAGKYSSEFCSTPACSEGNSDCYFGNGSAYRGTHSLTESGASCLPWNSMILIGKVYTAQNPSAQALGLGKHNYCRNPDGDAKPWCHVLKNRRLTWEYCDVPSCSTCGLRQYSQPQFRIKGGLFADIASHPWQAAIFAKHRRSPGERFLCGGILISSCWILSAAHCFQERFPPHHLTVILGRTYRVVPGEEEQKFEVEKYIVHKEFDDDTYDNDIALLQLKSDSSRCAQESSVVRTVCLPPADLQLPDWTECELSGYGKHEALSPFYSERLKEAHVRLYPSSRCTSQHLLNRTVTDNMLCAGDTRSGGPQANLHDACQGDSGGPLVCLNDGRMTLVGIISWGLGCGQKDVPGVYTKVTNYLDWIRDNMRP
Plasminogen, sequence (P00747 97-580 limits assumed): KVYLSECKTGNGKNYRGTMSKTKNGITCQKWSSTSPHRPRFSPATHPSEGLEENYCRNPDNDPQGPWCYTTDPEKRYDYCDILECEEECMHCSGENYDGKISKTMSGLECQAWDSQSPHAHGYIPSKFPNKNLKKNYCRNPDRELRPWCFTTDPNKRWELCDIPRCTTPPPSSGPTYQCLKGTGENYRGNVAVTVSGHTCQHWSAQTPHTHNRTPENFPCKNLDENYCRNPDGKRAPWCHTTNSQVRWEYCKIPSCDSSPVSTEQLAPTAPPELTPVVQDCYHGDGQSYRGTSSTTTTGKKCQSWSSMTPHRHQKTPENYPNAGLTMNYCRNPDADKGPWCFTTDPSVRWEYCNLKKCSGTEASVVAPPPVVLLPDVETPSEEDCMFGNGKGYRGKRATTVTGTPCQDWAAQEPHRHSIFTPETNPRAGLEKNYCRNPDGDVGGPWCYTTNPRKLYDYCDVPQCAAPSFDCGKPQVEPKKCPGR
Plasminogen, sequence (P00747 581-810 limits assumed): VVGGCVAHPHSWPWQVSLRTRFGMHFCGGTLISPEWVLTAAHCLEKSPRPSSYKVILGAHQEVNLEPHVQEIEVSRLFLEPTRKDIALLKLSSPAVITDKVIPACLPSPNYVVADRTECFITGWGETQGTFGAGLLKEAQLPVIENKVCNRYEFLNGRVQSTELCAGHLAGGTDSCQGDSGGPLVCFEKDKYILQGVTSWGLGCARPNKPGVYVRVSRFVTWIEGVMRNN

Regarding `CNc1nccn1Cc1csc(C(=O)Nc2c(OC)cc(Cl)cc2C(=O)Nc2ccc(Cl)cn2)c1Cl`, the Activity in the data set on Plasma [1] was 1.2 µM; with Plasma [7], 4.2 µM; with Plasma [8], 2.56 µM; with Rattus norvegicus, “Dose-dependent effect”. Further, the Ki was 990 nM on Prothrombin; 0.31 nM in data set [9]; 0.06 nM on Coagulation factor X [10]; greater than 5000 nM at Trypsin; greater than 5000 nM in [11]; 45 nM at Plasma kallikrein. Further, the Ki (at Coagulation factor XI; in data set [12]; on Plasminogen; in data set [13]; at Cathepsin G; on Neutrophil elastase) was greater than 5000 nM in each case. For the same compound, in [2], the clearance was found to be 4.4 mL/min/kg. Moreover, in data set [3], the Vd stood at 1 L/kg. This compound also had a half-life in data set [4] of 3.4 h. In data set [5], this compound came in with a Cmax of 3700 ng/mL. The compound also had a bioavailability in data set [6] of 98%.
For the compound `CN1CCN(Cc2csc(C(=O)Nc3ccc(Cl)cc3C(=O)Nc3ccc(Cl)cn3)c2Cl)CC1`, in the data set on Plasma [1], the Activity was determined as 6.9 µM. The logD in [14] came to 3.11. Besides, the Ki on Coagulation factor X [15] came out at 0.36 nM; on Prothrombin, 680 nM.
For `COc1cc(Cl)cc(C(=O)Nc2ccc(Cl)cn2)c1NC(=O)c1scc(CN2CCN(C)CC2)c1Cl` the same measures were 1.6 µM, 2.75, 0.16 nM and 1500 nM.
For `CN1CCN(Cc2csc(C(=O)Nc3ccc(Cl)cc3C(=O)Nc3ccc(Cl)cc3)c2Cl)CC1` the same measures were 12 µM, 2.96, 0.76 nM and 840 nM.
Turning to `COc1cc(Cl)cc(C(=O)Nc2ccc(Cl)cn2)c1NC(=O)c1scc(CN(C)CCO)c1Cl`, the Activity with Plasma [1] was 1.6 µM. For the same compound, the Ki stood at 0.24 nM on Coagulation factor X [15] and 1400 nM at Prothrombin. In data set [2], the clearance was 27 mL/min/kg. The Vd in [3] came out at 4.4 L/kg. The half-life in [4] was 2.1 h. Further, in data set [5], the highest level (Cmax) was 1200 ng/mL. The bioavailability in data set [6] was greater than 100%.
Take `COc1cc(Cl)cc(C(=O)Nc2ccc(Cl)cn2)c1NC(=O)c1scc(CN(C)C2=NCCO2)c1Cl`: the Activity came out at 0.36 µM with Plasma [1], 0.35 µM in the data set on Plasma [7] and 93 µM with Plasma [8]. For the same compound, the Ki on Coagulation factor X [15] is 0.007 nM; at Prothrombin it was 90 nM; in [9], 0.15 nM; at Coagulation factor X [10] it was 0.29 nM; at Trypsin it was greater than 10000 nM; in data set [11] it was greater than 5000 nM. Moreover, the Ki on Plasma kallikrein is 37 nM; on Coagulation factor XI, greater than 10000 nM; in [12], greater than 5000 nM; at Plasminogen it was greater than 10000 nM; in data set [13], greater than 10000 nM; at Cathepsin G it was greater than 10000 nM. The compound further gave a Ki on Neutrophil elastase greater than 10000 nM. The same compound displayed a clearance in data set [2] of 5.8 mL/min/kg. In data set [3], the Vd amounted to 1.6 L/kg. Further, the half-life in data set [4] is 3.2 h. Moreover, the highest level in data set [5] (Cmax) was 1900 ng/mL. The same compound came in with a bioavailability in [6] of 56%. Besides, the Fold change amounted to 3.2 with Canis familiaris [16], 5 with Canis familiaris [17] and 4 in the data set with Canis familiaris [18].
Consider `CNCc1csc(C(=O)Nc2c(OC)cc(Cl)cc2C(=O)Nc2ccc(Cl)cn2)c1Cl`, for which the Activity was 1.6 µM with Plasma [1], 4.35 µM in the data set on Plasma [7], 7.3 µM with Plasma [8] and “Dose-dependent effect” in the data set on Rattus norvegicus. For the same compound, the Ki on Coagulation factor X [15] was 0.21 nM; on Prothrombin it was 3700 nM; in data set [9], 1.7 nM; on Coagulation factor X [10], 2.5 nM; at Trypsin, greater than 10000 nM; in [11] it was greater than 5000 nM. Moreover, the Ki on Plasma kallikrein is 1000 nM; on Coagulation factor XI, greater than 10000 nM; in data set [12], greater than 5000 nM; at Plasminogen it was greater than 10000 nM; in data set [13], greater than 10000 nM; on Cathepsin G, greater than 10000 nM. The Ki on Neutrophil elastase was found to be 10000 nM. The compound also registered a clearance in data set [2] of 1.6 mL/min/kg. Also, in data set [3], the Vd turned out to be 1.4 L/kg. This compound had a half-life in data set [4] of 10.5 h. Also, the Cmax in [5] turned out to be 5100 ng/mL. In addition, the bioavailability in data set [6] was determined as 75%.

(Values after ChEMBL document CHEMBL1145379 (J Med Chem, 2007).)
